Laboratory results published in US20110033946A1, “DETECTION OF SHORT-CHAIN FATTY ACIDS IN BIOLOGICAL SAMPLES” (HEMAQUEST PHARMACEUTICALS, INC., priority 2009, published 2011).
Several values for one entry are separate records, joined by “and”; a condition that tells them apart may be missing. Equal values may be shown once. Read-outs that look alike come from different tables or passages of the source.

Legend:
[1] = Bench top stability in rat plasma; type: physicochemical; settings: for Bench top stability, RE % (mean vs nominal): room temperature approximately 12.5 hours
Experimental: (§1) For the remaining validation tests, a calibration curve and triplicates QCs at the low, mid and high levels were analyzed with each sample set. The following samples were also analyzed either in conjunction with one of the precision and accuracy runs or in one of the additional validation runs: Samples from six lots of control rat plasma for specificity; Samples from six lots of control rat plasma fortified with internal standard for specificity; Two concentration levels of unextracted QC-samples in triplicate (solvent standards) were analyzed for the evaluation of the recovery of sodium 2,2-dimethylbutyrate and DMV in rat plasma; Two levels of QC samples (Low QC and High QC in triplicate) were subjected to three freeze/thaw cycles at approximately −70° C. prior to extraction to evaluate freeze/thaw stability; Two levels of QC samples (Low QC and High QC in triplicate) were placed on the bench top for approximately 17 hours prior to extraction for the evaluation of the bench top stability; Triplicate low QC samples and triplicate high QC samples were stored for one month and three months in a freezer at approximately −70° C., and then extracted and analyzed to evaluate long term stability in rat plasma; Three aliquots of a dilution QC sample diluted 10-fold.
Bench top stability was evaluated at room temperature for approximately 12.5 hours. Triplicate QC-Low and QC-High samples were extracted and analyzed after these storage conditions. The CV % values for the QC-Low and QC-High stability samples are 6.3% and 11.7%, respectively. To calculate the RE %, the measured mean concentration was compared to the nominal concentration. The RE % values for the QC-Low and QC-High stability samples are 7.6% and 9.1%, respectively.

[2] = Stock solution stability at nominal 4° C. (Example 5); type: physicochemical; settings: nominal temperature of 4° C.
Experimental: In method I, the mobile phase of liquid chromatography was run on 0.1% formic acid in acetonitrile, and the elution volume was 10 ul. In method II, the mobile phase was run in 0.1% formic acid in methanol/water (98/2, volume to volume), and the elution volume was 5 ul.

[3] = Short-term stability in human urine at room temperature; type: physicochemical; settings: unextracted, bench-top light, six hours, 0.3, 19 and 38 μg/ml
Experimental: (§2) The applicability of the testing methodology to analyze samples stored under different conditions was analyzed. First, to assess short-term stability of DMB in human urine, samples at 0.3, 19 and 38 μg/ml, 92.3% of DMB were maintained unextracted at room temperature and at bench-top light levels for six hours. […] Second, to assess freeze/thaw stability of DMB in human urine, samples at 0.3, 19 and 38 μg/ml, 92.3% of DMB were stored at −70° C. and thawed. This process was repeated twice and samples after each freezing were analyzed for DMB as described. For each concentration and each freezing/thawing sample, the % CV was no more than 15%.

[4] = Freeze/thaw stability in human urine; type: physicochemical; settings: stored at −70° C. and thawed, repeated twice, 0.3, 19 and 38 μg/ml
Experimental: as §2

[5] = type: physicochemical, rat; settings: for Mean concentration, QC-Low / RE %, QC-Low / Measured concentration, QC-Low: nominal 0.60 μg/mL; for Measured concentration, QC-Low / Measured concentration, QC-High: individual replicates; for Mean concentration, QC-High / RE %, QC-High / Measured concentration, QC-High: nominal 40.0 μg/mL; for Long-term freezer stability, RE %: rat, 0.6 μg/mL
Experimental: as §1
QC-Low and QC-High plasma samples, which had been stored in a freezer at approximately −70° C. for one month and three months (98 days), were extracted in triplicate and analyzed. At the one month interval, the RE % was −24.1% for the QC-Low level. This may have been an anomaly since at the QC-Low level for the three month interval, the RE % was 4.1%. All CV % values and RE % values at the 98 day interval were within the acceptance criteria (≦15% and ±15% respectively). Therefore, sodium 2,2-dimethylbutyrate can be considered stable in rat plasma at approximately −70° C. for at least […].

[6] = Freeze/thaw cycle stability in dog plasma; type: physicochemical; settings: three freeze/thaw cycles at approximately −70° C.
Experimental: as §1, with “control dog” for “control rat”, “for specificity.” for “for specificity; Samples from six lots of control rat plasma fortified with internal standard for specificity;”, “in dog plasma.” for “in rat plasma;”, “freeze/thaw stability.” for “freeze/thaw stability;”, “top stability.” for “top stability;”
The stability of sodium 2,2-dimethylbutyrate in dog plasma was evaluated at approximately −70° C. for three cycles using QC-Low and QC-High samples in triplicate. The freeze time was at least 12 hours, with a minimum thaw time of one hour. The CV % values for the QC-Low and QC-High stability samples are 1.4% and 2.8%, respectively. To calculate the RE %, the measured mean concentration was compared to the nominal concentration. The RE % values for the QC-Low and QC-High stability samples are 1.9% and −8.1%, respectively.

[7] = rat plasma, approximately −70° C., 1 Month Interval
[8] = rat plasma, approximately −70° C., 3 Month Interval

Structure (SMILES): CCC(C)(C)C(=O)[O-].[Na+] [Sodium 2,2-Dimethylbutyrate]
- Time stable on bench top ([1]; ambient bench top storage): approximately 12.5 hours
- Measured concentration, QC-Low ([1]; bench top room temperature, nominal 0.60 μg/mL, individual replicates): 0.600 µg/mL and 0.677 µg/mL and 0.660 µg/mL
- Measured concentration, QC-High ([1]; bench top room temperature, nominal 40.0 μg/mL, individual replicates): 45.6 µg/mL and 37.9 µg/mL and 47.4 µg/mL
- Mean concentration, QC-Low ([1]; bench top, nominal 0.60 μg/mL): 646 ng/mL
- RE %, QC-Low ([1]; bench top, nominal 0.60 μg/mL): 7.6%
- Mean concentration, QC-High ([1]; bench top, nominal 40.0 μg/mL): 43600 ng/mL
- RE %, QC-High ([1]; bench top, nominal 40.0 μg/mL): 9.1%
- Bench top stability, RE % (mean vs nominal) ([1]; QC-High): 9.1%
- Bench top stability, RE % (mean vs nominal) ([1]; QC-Low): 7.6%
- Time stock solutions are stable [2]: at least 115 days
- Short-term stability in human urine [3]: stable
- % CV after freeze/thaw [4]: no more than 15%
- Mean concentration, QC-Low [5, 7]: 456 ng/mL
- RE %, QC-Low [5, 7]: −24.1%
- Measured concentration, QC-Low [5, 7]: 0.410 µg/mL and 0.484 µg/mL and 0.473 µg/mL
- Mean concentration, QC-High [5, 7]: 34700 ng/mL
- RE %, QC-High [5, 7]: −13.3%
- Measured concentration, QC-High [5, 7]: 35.4 µg/mL and 34.3 µg/mL and 34.4 µg/mL
- Mean concentration, QC-Low [5, 8]: 620 ng/mL
- RE %, QC-Low [5, 8]: 4.1%
- Measured concentration, QC-Low [5, 8]: 0.663 μg/mL and 0.605 μg/mL (2×)
- Mean concentration, QC-High [5, 8]: 37200 ng/mL
- RE %, QC-High [5, 8]: −7.1%
- Measured concentration, QC-High [5, 8]: 38.0 μg/mL (2×) and 35.5 μg/mL
- Time stable in freezer ([5]; rat plasma, approximately −70° C.): at least 99 days
- Long-term freezer stability, RE % ([5]; 1 month): −24.1%
- Long-term freezer stability, RE % ([5]; 98 days): 4.1%
- Stability after freeze/thaw cycles [6]: stable
- Freeze/thaw cycle stability, Mean concentration ([6]; QC-High, nominal 40.0 μg/mL): 36.8 µg/mL
- Freeze/thaw cycle stability, RE % (mean vs nominal) ([6]; QC-High, nominal 40.0 μg/mL): −8.1%
- Freeze/thaw cycle stability, concentration found (replicate) ([6]; QC-High, nominal 40.0 μg/mL): 36.2 μg/mL (2×) and 37.9 μg/mL
- Freeze/thaw cycle stability, Mean concentration ([6]; QC-Low, nominal 0.60 μg/mL): 0.612 µg/mL
- Freeze/thaw cycle stability, RE % (mean vs nominal) ([6]; QC-Low, nominal 0.60 μg/mL): 1.9%
- Freeze/thaw cycle stability, concentration found (replicate) ([6]; QC-Low, nominal 0.60 μg/mL): 0.603 µg/mL and 0.620 µg/mL and 0.612 µg/mL
